In patent US6627647B1, “Substituted 1-(4-aminophenyl)imidazoles and their use as anti-inflammatory agents” (Boehringer Ingelheim Pharmaceuticals, Inc., priority 2000, dated 2003):

Test system: IL-2 promoter/enhancer
Assay: IL-2 promoter assay (luciferase reporter in J.1F/C6 Jurkat cells)
Type: cell-based
Conditions: Homo sapiens; J.1F/C6 Jurkat cell line, induction with ionomycin and PMA; read-out: IC50, inhibition of luciferase activity in IL-2 promoter assay
Source text: The IL-2 promoter assay measures transcriptional activation of a luciferase reporter gene which has been placed under control of the IL-2 promoter/enhancer. All the known regulatory features of the IL-2 gene are contained within a ˜300 bp sequence immediately upstream of the open reading frame. The region −328 to +35 relative to the transcription start site of the IL-2 gene is obtained by […] of human genomic DNA and is subcloned into the promoterless luciferase reporter vector pGL2-Basic (Promega). The resulting construct, pIL2P-luc, and a vector containing a neomycin resistance gene, pcDNA/Neo (Invitrogen), are linearized and stably transfected into Jurkat cells (a human T-cell line) by electroporation.
For screening compounds, the cells are pelleted by centrifugation, washed once with PBS, resuspended in RPMI (phenol red-free) containing 5% FBS, and dispensed into 96-well, white microtiter plates (Packard) at 50,000 cells/well. The cells are pre-incubated with compounds (1 μg/ml) for 15 min prior to addition of ionomycin (1 μg/ml) and PMA (10 ng/ml) in a final volume of 100 μl. Following a 5 hr incubation at 37° C. in a humidified incubator, 100 μl of Luc-Lite lysis buffer/luciferase assay buffer (Promega) is added and luminescence measured using a Packard TopCount scintillation counter/luminometer.

IC50: 0.3 nM
SMILES: C=CC[C@@H]1/C=C(\C)C[C@H](C)C[C@H](OC)[C@H]2O[C@@](O)(C(=O)C(=O)N3CCCC[C@H]3C(=O)O[C@H](/C(C)=C/[C@@H]3CC[C@@H](O)[C@H](OC)C3)[C@H](C)[C@@H](O)CC1=O)[C@H](C)C[C@@H]2OC [FK506]
